From patent US8501762B2, “Tetrahydroprotoberberine compounds, the synthetic method and the use thereof” (Shanghai Institute of Materia Medica, Chinese Academy of …, priority 2005, dated 2013)
Where a name gives a salt, the structure may show the parent alone.

What was measured:
dopamine D1 receptor = dopamine D1 receptor (Homo sapiens, UniProt P21728); experiment: Dopamine receptor competitive binding, D1; conditions: for inhibition at 10 µM / Inhibition(%) for D1: tested at 1 × 10^−5 mol/L; for Ki: calculated from the inhibition data
Method: (§1) 1. Dopamine Receptor Binding Studies
The Ki is calculated according the inhibition data tested.

dopamine D2 receptor = dopamine D2 receptor (Homo sapiens, UniProt P14416); experiment: Dopamine receptor competitive binding, D2; conditions: for inhibition at 10 µM / Inhibition(%) for D2: tested at 1 × 10^−5 mol/L; for Ki: calculated from the inhibition data
Method: as §1
The affinities of these compounds on dopamine receptors were evaluated with competitive receptor binding assays (Acta Pharmacol Sin, 1989, 10:104 and Acta Pharmacol Sin, 2003, 24(3): 225-229). The Ki is calculated according the inhibition data tested.

mice = experiment: PCP-induced immobility test in mice; type: in vivo; conditions: 20 mg/kg (i.g.), PCP-treated mice; PCP group 78.1±28 s, P<0.05
Method: 3. PCP-Induced Immobility Test in Mice
Phencyclidine(PCP)-induced immobility test in mice was selected as the model to evaluate the antipsychotic effect of some compounds of the present invention (Br J Pharmacol, 1995, 116: 2531-2537). The dose is selected according the ED50 of l-CSLMS. Given PCP, immobility times of mice was increased, whereas the active compound can decrease the immobility time. At 20 mg/kg (i.g.), the immobility time of compound of example 47 is 54.9±19 s, and the immobility time of l-CSLMS is 48.0±27 s, which has statistically significant differences (P<0.05) compared to PCP group (78.1±28 s).

6-OHDA-lesioned rats = 6-OHDA-lesioned rats rotation test; type: in vivo; conditions: 10 mg/kg
Method: 2. 6-OHDA-Lesioned Rats Rotation Test
Some of the compounds were evaluated on 6-OHDA-lesioned rats model.

[1] = preliminary clinic studies, cited from earlier work

Chain of dopamine D2 receptor (P14416 whole entry, species assumed): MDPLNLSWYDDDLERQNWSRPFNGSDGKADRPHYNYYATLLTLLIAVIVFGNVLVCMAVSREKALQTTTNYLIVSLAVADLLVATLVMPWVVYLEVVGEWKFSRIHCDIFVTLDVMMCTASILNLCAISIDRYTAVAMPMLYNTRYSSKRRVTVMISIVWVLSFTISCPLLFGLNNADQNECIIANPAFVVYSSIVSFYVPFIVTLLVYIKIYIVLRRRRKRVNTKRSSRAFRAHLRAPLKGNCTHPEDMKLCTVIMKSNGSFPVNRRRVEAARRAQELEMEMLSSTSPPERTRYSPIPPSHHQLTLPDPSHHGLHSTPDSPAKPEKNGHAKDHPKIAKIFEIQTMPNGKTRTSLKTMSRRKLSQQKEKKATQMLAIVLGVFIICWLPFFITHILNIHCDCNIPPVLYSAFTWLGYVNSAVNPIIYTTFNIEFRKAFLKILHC
Chain of dopamine D1 receptor (P21728 whole entry): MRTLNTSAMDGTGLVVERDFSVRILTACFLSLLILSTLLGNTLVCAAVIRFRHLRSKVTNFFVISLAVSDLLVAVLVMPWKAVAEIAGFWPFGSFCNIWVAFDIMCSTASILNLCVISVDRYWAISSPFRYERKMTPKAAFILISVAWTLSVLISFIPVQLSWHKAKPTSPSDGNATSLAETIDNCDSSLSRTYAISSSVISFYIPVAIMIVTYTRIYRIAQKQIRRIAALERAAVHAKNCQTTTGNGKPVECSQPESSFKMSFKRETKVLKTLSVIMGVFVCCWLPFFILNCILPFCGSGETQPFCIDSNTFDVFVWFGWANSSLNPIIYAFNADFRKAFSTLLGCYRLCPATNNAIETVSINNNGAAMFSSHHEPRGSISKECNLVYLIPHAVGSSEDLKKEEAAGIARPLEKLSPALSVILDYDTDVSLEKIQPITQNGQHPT

SMILES	inhibition at 10 µM (dopamine D1 receptor) [%]	inhibition at 10 µM (dopamine D2 receptor) [%]	Ki (dopamine D1 receptor) [µM]	other results
COc1cc2c(cc1OC(C)=O)C1Cc3c(Cl)cc(OC)c(OC(C)=O)c3CN1CC2 (single isomer, unassigned; (-)) [Example 47, (−)-2,9-diacetoxy-3,10-dimethoxy-12-chloro-5,8,13,13a-tetrahydro-6H-dibenzo[a,g]quinolizine]	100	77.4	–	immobility time (mice): 54.9 ± 19 s
COc1cc2c(cc1OC(C)=O)C1Cc3ccc(OC(C)=O)c(OC)c3CN1CC2 (single isomer, unassigned; (-)) [Example 48, (−)-2,10-diacetoxy-3,9-dimethoxy-5,8,13,13a-tetrahydro-6H-dibenzo[a,g]quinolizine]	–	–	–	effect in 6-OHDA-lesioned rats model (6-OHDA-lesioned rats): positive effects
COc1cc2c(cc1O)C1Cc3c(Cl)cc(OC)c(OC(C)=O)c3CN1CC2 (single isomer, unassigned; (-)) [Example 50, (−)-2-hydroxy-3,10-dimethoxy-9-acetoxy-12-chloro-5,8,13,13a-tetrahydro-6H-dibenzo[a,g]quinolizine]	100	–	–	Inhibition(%) for D2 (dopamine D2 receptor): 58.5%
COc1cc2c(cc1O)C1Cc3c(Cl)cc(OC)c(O)c3CN1CC2 (stereo not drawn) [CSL, 2,9-dihydroxy-3,10-dimethoxy-12-chloro-5,8,13,13a-tetrahydro-6H-dibenzo[a,g]quinolizine, reference compound]	–	–	0.0061 ± 0.003	–
COc1cc2c(cc1O)C1Cc3c(Cl)cc(OC)c(OC(C)=O)c3CN1CC2 (stereo not drawn) [Example 7, 2-hydroxy-3,10-dimethoxy-9-acetoxy-12-chloro-5,8,13,13a-tetrahydro-6H-dibenzo[a,g]quinolizine]	–	–	0.0107 ± 0.001	Inhibition(%) for D1 (dopamine D1 receptor): 100%; effect in 6-OHDA-lesioned rats model (6-OHDA-lesioned rats): positive effects; Ki (dopamine D2 receptor): 6.9 ± 1.5 µM; Inhibition(%) for D2 (dopamine D2 receptor): 100.0%
CC(=O)O.COc1cc2c(cc1OC(C)=O)C1Cc3c(Cl)cc(OC)c(OC(C)=O)c3CN1CC2 (stereo not drawn) [Example 8, 2,9-diacetoxy-3,10-dimethoxy-12-chloro-5,8,13,13a-tetrahydro-6H-dibenzo[a,g]quinolizine acetate]	–	–	–	Inhibition(%) for D1 (dopamine D1 receptor): 100.0%; Inhibition(%) for D2 (dopamine D2 receptor): 93.8%
COc1cc2c(cc1O)C1Cc3c(Cl)cc(OC)c(OCCO)c3CN1CC2 (stereo not drawn) [Example 17, 2-hydroxy-3,10-dimethoxy-9-(2-hydroxy-ethoxy)-12-chloro-5,8,13,13a-tetrahydro-6H-dibenzo[a,g]quinolizine]	97.9	57.4	–	–
COc1cc2c(cc1OCc1ccccc1)C1Cc3c(Cl)cc(OC)c(OCCOCCO)c3CN1CC2 (stereo not drawn) [Example 18, 2-benzyloxy-3,10-dimethoxy-9-[2-(2-hydroxy-ethoxy)-ethoxy]-12-chloro-5,8,13,13a-tetrahydro-6H-dibenzo[a,g]quinolizine]	–	–	–	melting point: 122 °C
CCOC(=O)Oc1c(OC)cc(Cl)c2c1CN1CCc3cc(OC)c(O)cc3C1C2 (stereo not drawn) [Example 21, 2-hydroxy-3,10-dimethoxy-9-ethoxycarbonyloxy-12-chloro-5,8,13,13a-tetrahydro-6H-dibenzo[a,g]quinolizine]	100	100	0.0026 ± 0.0007	–
COc1cc2c(cc1OCc1ccccc1)C1Cc3c(Cl)cc(OC)c(OC(=O)[C@@H](N)Cc4ccccc4)c3CN1CC2 (stereo partly drawn) [Example 23, 2-benzyloxy-3,10-dimethoxy-9-phenylalanyloxy-12-chloro-5,8,13,13a-tetrahydro-6H-dibenzo[a,g]quinolizine]	77.5	44	–	–
COc1cc2c(cc1OC(C)=O)C1Cc3ccc(OC)c(OC(C)=O)c3CN1CC2 (stereo not drawn) [Example 34, 2,9-diacetoxy-3,10-dimethoxy-5,8,13,13a-tetrahydro-6H-dibenzo[a,g]quinolizine]	99.4	90.7	0.0518 ± 0.0322	Ki (dopamine D2 receptor): 10.6 ± 2.6 µM
COCCOCCOCC(=O)Oc1cc2c(cc1OC)CCN1Cc3c(c(Cl)cc(OC)c3OC(=O)COCCOCCOC)CC21 (stereo not drawn) [Example 42, 2,9-bis-{2-[2-(2-methoxy-ethoxy)-ethoxy]-acetoxy-}3,10-dimethoxy-12-chloro-5,8,13,13a-tetrahydro-6H-dibenzo[a,g]quinolizine]	96.2	39.7	0.0354 ± 0.0044	Ki (dopamine D2 receptor): 14.9 ± 0.2 µM
COCCOCCOCC(=O)Oc1c(OC)cc(Cl)c2c1CN1CCc3cc(OC)c(O)cc3C1C2 (stereo not drawn) [Example 43, 2-hydroxy-3,10-dimethoxy-9-{2-[2-(2-methoxy-ethoxy)-ethoxy]-acetoxy-}-12-chloro-5,8,13,13a-tetrahydro-6H-dibenzo[a,g]quinolizine]	–	–	0.404 ± 0.188	–
Oc1cc2c(cc1O)C1Cc3c(Cl)cc(O)c(O)c3CN1CC2 (stereo not drawn) [Example 44, 2,3,9,10-tetrahydroxy-12-chloro-5,8,13,13a-tetrahydro-6H-dibenzo[a,g]quinolizine]	100	93.3	–	effect in 6-OHDA-lesioned rats model (6-OHDA-lesioned rats): positive effects
COc1cc(F)c2c(c1OC)CN1CCc3cc4c(cc3C1C2)OCO4 (stereo not drawn) [Example 63, 2,3-methylenedioxyl-9,10-dimethoxy-12-fluoro-5,8,13,13a-tetrahydro-6H-dibenzo[a,g]quinolizine]	–	–	–	Inhibition(%) for D1 (dopamine D1 receptor): 95.2%
COc1cc2c(cc1O)[C@@H]1Cc3c(Cl)cc(OC)c(O)c3CN1CC2 [l-CSLMS, S-chloroscoulerine mesylate, reference compound]	–	–	–	Ki (dopamine D2 receptor): 1.7 ± 0.5 µM; immobility time (mice): 48.0 ± 27 s
COc1cc2c(cc1O)[C@@H]1Cc3ccc(O)c(OC)c3CN1CC2 [l-SPD, l-Stepholidine]	–	–	–	side effects ([1]; schizophrenia): few side effects; activity in the treatment of schizophrenia [1]: favorable activity
